PMC6099706, “Anti-Mycobacterium tuberculosis Activity of Esters of Quinoxaline 1,4-Di-N-Oxide” (Molecules : A Journal of Synthetic Chemistry and Natural …, 2018)
≈ marks a conversion by molar mass, not a printed value.

Legend:
[1] = system: Mycobacterium tuberculosis strain H37Rv; experiment: microplate Alamar blue assay (MABA); format: cell-based; settings: for MIC: Mycobacterium tuberculosis, H37RV; for MIC / MABA MIC: M. tuberculosis H37Rv, lowest concentration effecting 90% inhibition; for MABA percentage in parentheses after the MIC bound: meaning not defined in the paper, printed beside the highest concentration
[2] = system: nonreplicating persistent (NRP) M. tuberculosis strain; experiment: microbe, parasite or virus in culture; format: cell-based, Mycobacterium tuberculosis; settings: for MIC: Mycobacterium tuberculosis, read-out: LORA MIC; for LORA percentage in parentheses after the MIC bound: meaning not defined in the paper, printed beside the highest concentration
[3] = molecular target: M. tuberculosis gyrase (GyrA and Gyr B subunits) (Mycobacterium tuberculosis, UniProt P9WG45+P9WG47); experiment: M. tuberculosis gyrase supercoiling assay; format: biochemical; settings: at 50 μM
Procedure: The activity of the enzyme was determined prior to the testing of the quinoxaline 1,4-di-N-oxide derivatives and 1 U was defined as the amount of enzyme required to just fully supercoil the substrate under test conditions. Compounds were tested at 50 μM. Final DMSO concentration in the assays was 1% (v/v).
1 U of M. tuberculosis gyrase (GyrA and Gyr B subunits) (final concentration in assay 50 nM) was incubated with 0.5 μg of relaxed pBR322 DNA in a 30 μL reaction at 37 °C for 30 min under the following conditions: 50 mM HEPES. KOH (pH 7.9), 6 mM magnesium acetate, 4 mM DTT, 1 mM ATP, 100 mM potassium glutamate, 2 mM spermidine and 0.05 mg/mL albumin.
Each reaction was stopped by the addition of 30 μL chloroform/iso-amyl alcohol (26:1) and 20 μL Stop Dye (40% sucrose, 100 mM Tris.HCl (pH 7.5), 10 mM EDTA, 0.5 μg/mL bromophenol blue), before being loaded on a 1.0% TAE (Tris.acetate […], EDTA […]) gel run at 80 V for 2 h.
Bands were visualized by ethidium staining for 10 min, destained for 10 min in water, analyzed by gel documentation equipment (Syngene, Cambridge, UK), and quantified using Syngene software (Genetools version 4.00 (1997–1998), Syngene, A division of Synoptics Corp, Cambridge, UK).
Raw gel data (fluorescent band volumes) collected from Syngene’s GeneTools gel analysis software were converted to a % of the 100% control (the supercoiled enzyme plus DMSO control DNA band). These were analyzed using SigmaPlot Version 13.0 (Systat Software Inc., London, UK; 2016).

[4] = nonreplicating persistent strain

Sequence of M. tuberculosis gyrase (GyrA and Gyr B subunits) (P9WG45 whole entry): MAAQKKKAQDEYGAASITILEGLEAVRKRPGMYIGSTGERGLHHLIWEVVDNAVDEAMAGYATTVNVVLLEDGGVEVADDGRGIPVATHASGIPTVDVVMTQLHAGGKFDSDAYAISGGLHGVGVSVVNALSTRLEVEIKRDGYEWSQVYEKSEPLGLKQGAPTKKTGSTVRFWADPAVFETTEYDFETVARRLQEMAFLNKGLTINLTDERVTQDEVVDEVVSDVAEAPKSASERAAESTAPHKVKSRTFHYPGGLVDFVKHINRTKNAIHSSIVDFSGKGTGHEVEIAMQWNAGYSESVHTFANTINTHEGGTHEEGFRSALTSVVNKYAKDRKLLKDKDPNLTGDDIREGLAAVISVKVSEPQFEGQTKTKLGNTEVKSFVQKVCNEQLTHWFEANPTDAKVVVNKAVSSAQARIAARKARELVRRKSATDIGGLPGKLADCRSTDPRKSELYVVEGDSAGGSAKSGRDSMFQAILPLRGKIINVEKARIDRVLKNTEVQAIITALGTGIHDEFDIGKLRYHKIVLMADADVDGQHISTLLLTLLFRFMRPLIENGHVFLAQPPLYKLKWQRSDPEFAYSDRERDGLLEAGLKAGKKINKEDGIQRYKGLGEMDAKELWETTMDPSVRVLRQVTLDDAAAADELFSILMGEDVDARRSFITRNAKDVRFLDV
Sequence of M. tuberculosis gyrase (GyrA and Gyr B subunits) (P9WG47 whole entry): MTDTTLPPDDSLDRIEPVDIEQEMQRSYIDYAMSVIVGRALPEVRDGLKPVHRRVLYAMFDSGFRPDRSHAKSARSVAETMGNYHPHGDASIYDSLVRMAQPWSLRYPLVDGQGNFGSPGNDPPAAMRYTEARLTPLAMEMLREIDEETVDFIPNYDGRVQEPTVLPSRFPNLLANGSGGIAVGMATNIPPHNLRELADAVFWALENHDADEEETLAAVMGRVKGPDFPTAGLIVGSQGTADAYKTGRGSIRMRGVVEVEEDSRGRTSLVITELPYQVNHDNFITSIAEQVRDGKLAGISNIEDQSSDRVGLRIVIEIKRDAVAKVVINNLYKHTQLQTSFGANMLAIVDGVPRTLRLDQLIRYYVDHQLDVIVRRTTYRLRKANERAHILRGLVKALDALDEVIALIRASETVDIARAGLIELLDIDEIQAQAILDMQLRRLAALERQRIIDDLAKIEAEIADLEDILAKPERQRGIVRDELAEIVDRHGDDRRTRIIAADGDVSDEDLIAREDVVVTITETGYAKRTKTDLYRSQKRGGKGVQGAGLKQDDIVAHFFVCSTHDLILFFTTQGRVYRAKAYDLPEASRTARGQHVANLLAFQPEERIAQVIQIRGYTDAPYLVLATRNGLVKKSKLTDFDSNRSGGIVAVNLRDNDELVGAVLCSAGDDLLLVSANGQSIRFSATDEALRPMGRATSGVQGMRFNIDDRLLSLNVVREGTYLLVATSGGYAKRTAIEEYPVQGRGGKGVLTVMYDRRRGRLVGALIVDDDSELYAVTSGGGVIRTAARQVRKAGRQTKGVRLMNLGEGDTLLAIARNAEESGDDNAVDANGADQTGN

| SMILES | MIC [1] [µg/mL] | MIC [2, 4] [µg/mL] | other results |
| --- | --- | --- | --- |
| COC(=O)c1ccc2c(c1)[n+]([O-])c(C(=O)c1ccccc1)c(C)[n+]2[O-] [Compound T-003] | 3.47 (≈ 10.3 µM) | 1.49 (≈ 4.4 µM) | inhibitory effect on M. tuberculosis gyrase supercoiling [3]: none of the compounds showed an inhibitory effect |
| CCOC(=O)c1ccc2c(c1)[n+]([O-])c(C(=O)c1ccccc1)c(C)[n+]2[O-] [Compound T-004] | 2.32 (≈ 6.58 µM) | 0.61 (≈ 1.73 µM) | – |
| COC(=O)c1ccc2c(c1)[n+]([O-])c(C(=O)Nc1ccccc1)c(C)[n+]2[O-] [Compound T-012] | 1.07 (≈ 3.03 µM) | 0.86 (≈ 2.43 µM) | inhibitory effect on M. tuberculosis gyrase supercoiling [3]: none of the compounds showed an inhibitory effect |
| CCOC(=O)c1c(C)[n+]([O-])c2ccc(C(=O)OC)cc2[n+]1[O-] [Compound T-013] | 0.47 (≈ 1.53 µM) | 0.54 (≈ 1.76 µM) | inhibitory effect on M. tuberculosis gyrase supercoiling [3]: none of the compounds showed an inhibitory effect |
| COC(=O)c1ccc2no[n+]([O-])c2c1 [Compound T-014] | 7.6 (≈ 39.1 µM) | 13 (≈ 66.9 µM) | – |
| CCOC(=O)c1ccc2c(c1)[n+]([O-])c(C(=O)OCC)c(C)[n+]2[O-] [Compound T-015] | 0.5 (≈ 1.56 µM) | 0.49 (≈ 1.53 µM) | – |
| CCOC(=O)c1ccc2c(c1)[n+]([O-])c(C(=O)CC)c(C(F)(F)F)[n+]2[O-] [Compound T-026] | > 22 | 2.5 (≈ 6.98 µM) | MABA MIC [1]: 22.5 µg/mL |
| COC(=O)c1ccc2c(c1)[n+]([O-])c(C(C)=O)c(C)[n+]2[O-] [Compound T-034] | 1.1 (≈ 3.98 µM) | 0.7 (≈ 2.53 µM) | – |
| COC(=O)c1cc2c(cc1OC)no[n+]2[O-] [Compound T-036] | > 100 | – | MABA MIC [1]: >128 µg/mL |
| CCOC(=O)Cc1c(C(=O)OCC)[n+]([O-])c2cc(C(=O)OC)ccc2[n+]1[O-] [Compound T-037] | 1.2 (≈ 3.17 µM) | 1.9 (≈ 5.02 µM) | – |
| CCC(=O)c1c(C(F)(F)F)[n+]([O-])c2ccc(C(=O)OC)cc2[n+]1[O-] [Compound T-038] | < 0.4 | – | inhibitory effect on M. tuberculosis gyrase supercoiling [3]: none of the compounds showed an inhibitory effect |
| COC(=O)c1ccc2c(c1)[n+]([O-])c(C(=O)C(C)C)c(C(F)(F)F)[n+]2[O-] [Compound T-039] | 1.54 (≈ 4.3 µM) | 0.83 (≈ 2.32 µM) | – |
| CCOC(=O)c1c(-c2ccccc2)[n+]([O-])c2ccc(C(=O)OC)cc2[n+]1[O-] [Compound T-042] | 1 (≈ 2.71 µM) | 0.5 (≈ 1.36 µM) | – |
| CCOC(=O)c1ccc2c(c1)[n+]([O-])c(C(=O)OCC)c(-c1ccccc1)[n+]2[O-] [Compound T-043] | 0.54 (≈ 1.41 µM) | 0.47 (≈ 1.23 µM) | – |
| CCOC(=O)c1ccc2c(c1)[n+]([O-])c(C(N)=O)c(C)[n+]2[O-] [Compound T-045] | > 22 | 100 (≈ 344 µM) | MABA MIC [1]: 29.83 µg/mL |
| [O-][n+]1onc2ccccc21 [Compound T-046] | – | – | MABA MIC [1]: 58.5 µg/mL; LORA MIC [2, 4]: 46.97 µg/mL |
| CC(C)OC(=O)c1ccc2no[n+]([O-])c2c1 [Compound T-063] | 1.4 (≈ 6.3 µM) | 3.04 (≈ 13.7 µM) | – |
| COC(=O)c1c(C)[n+]([O-])c2ccc(C(=O)OC(C)C)cc2[n+]1[O-] [Compound T-064] | 0.58 (≈ 1.81 µM) | 0.56 (≈ 1.75 µM) | inhibitory effect on M. tuberculosis gyrase supercoiling [3]: none of the compounds showed an inhibitory effect |
| CCOC(=O)c1c(C)[n+]([O-])c2ccc(C(=O)OC(C)C)cc2[n+]1[O-] [Compound T-065] | 0.7 (≈ 2.09 µM) | 0.5 (≈ 1.5 µM) | – |
| Cc1c(C(=O)OC(C)(C)C)[n+]([O-])c2cc(C(=O)OC(C)C)ccc2[n+]1[O-] [Compound T-066] | 68.6 (≈ 189 µM) | > 100 | LORA percentage in parentheses after the MIC bound [2]: 77% |
| CCOC(=O)Cc1c(C(=O)OCC)[n+]([O-])c2cc(C(=O)OC(C)C)ccc2[n+]1[O-] [Compound T-067] | 3.41 (≈ 8.39 µM) | 2.47 (≈ 6.08 µM) | – |
| CC(=O)c1c(C(F)(F)F)[n+]([O-])c2ccc(C(=O)OC(C)C)cc2[n+]1[O-] [Compound T-070] | ≤ 0.15 | 0.24 (≈ 0.67 µM) | – |

| SMILES | MIC [1] [µg/mL] | MIC [2, 4] [µg/mL] | other results |
| --- | --- | --- | --- |
| CC(C)OC(=O)c1ccc2c(c1)[n+]([O-])c(C(=O)c1ccccc1)c(C(F)(F)F)[n+]2[O-] [Compound T-071] | 1.19 (≈ 2.83 µM) | 0.64 (≈ 1.52 µM) | – |
| CC(C)OC(=O)c1ccc2c(c1)[n+]([O-])c(C(=O)c1ccco1)c(C(F)(F)F)[n+]2[O-] [Compound T-073] | 0.7 (≈ 1.71 µM) | 0.6 (≈ 1.46 µM) | – |
| CCCOC(=O)c1ccc2no[n+]([O-])c2c1 [Compound T-074] | 0.87 (≈ 3.92 µM) | 4.62 (≈ 20.8 µM) | – |
| CC(=O)c1c(C)[n+]([O-])c2ccc(C(=O)OC(C)C)cc2[n+]1[O-] [Compound T-084] | 0.8 (≈ 2.63 µM) | 0.6 (≈ 1.97 µM) | – |
| CCCOC(=O)c1ccc2c(c1)[n+]([O-])c(C(=O)OCC)c(C)[n+]2[O-] [Compound T-090] | 0.8 (≈ 2.39 µM) | – | – |
| CCCOC(=O)c1ccc2c(c1)[n+]([O-])c(C(=O)C(C)(C)C)c(C)[n+]2[O-] [Compound T-091] | > 100 | – | MABA percentage in parentheses after the MIC bound [1]: 33% |
| Cc1c(C(=O)Nc2ccccc2)[n+]([O-])c2cc(C(=O)OC(C)C)ccc2[n+]1[O-] [Compound T-097] | > 20 | > 20 | MABA percentage in parentheses after the MIC bound [1]: 6%; LORA percentage in parentheses after the MIC bound [2]: 33% |
| Cc1c(C(=O)c2ccccc2)[n+]([O-])c2cc(C(=O)OC(C)C)ccc2[n+]1[O-] [Compound T-098] | 4.59 (≈ 12.5 µM) | 2.87 (≈ 7.83 µM) | – |
| CC(C)OC(=O)c1ccc2c(c1)[n+]([O-])c(C(=O)C(C)(C)C)c(C(C)(C)C)[n+]2[O-] [Compound T-107] | 2.1 (≈ 5.41 µM) | – | – |
| Cc1c(C(N)=O)[n+]([O-])c2cc(C(=O)OC(C)C)ccc2[n+]1[O-] [Compound T-108] | 22.5 (≈ 73.7 µM) | – | inhibitory effect on M. tuberculosis gyrase supercoiling [3]: none of the compounds showed an inhibitory effect |
| CCCOC(=O)c1ccc2c(c1)[n+]([O-])c(C(=O)C(C)C)c(C(F)(F)F)[n+]2[O-] [Compound T-111] | 1.5 (≈ 3.88 µM) | – | – |
| CCCOC(=O)c1ccc2c(c1)[n+]([O-])c(C(=O)OCC)c(C(=O)C(=O)OCC)[n+]2[O-] [Compound T-112] | 1.4 (≈ 3.33 µM) | – | – |
| CCCOC(=O)c1ccc2c(c1)[n+]([O-])c(C(C)=O)c(C(F)(F)F)[n+]2[O-] [Compound T-113] | 3 (≈ 8.37 µM) | – | – |
| CCCOC(=O)c1ccc2c(c1)[n+]([O-])c(C(=O)c1ccco1)c(C(F)(F)F)[n+]2[O-] [Compound T-114] | 2.9 (≈ 7.07 µM) | – | inhibitory effect on M. tuberculosis gyrase supercoiling [3]: none of the compounds showed an inhibitory effect |
| CCCOC(=O)c1ccc2c(c1)[n+]([O-])c(C(=O)c1ccccc1)c(C(F)(F)F)[n+]2[O-] [Compound T-115] | 1.5 (≈ 3.57 µM) | – | – |
| CCCOC(=O)c1ccc2c(c1)[n+]([O-])c(C(=O)OCC)c(C(F)(F)F)[n+]2[O-] [Compound T-124] | 3 (≈ 7.73 µM) | – | – |
| CCCOC(=O)c1ccc2c(c1)[n+]([O-])c(C(=O)Nc1ccccc1)c(C)[n+]2[O-] [Compound T-125] | 12.3 (≈ 32.3 µM) | – | inhibitory effect on M. tuberculosis gyrase supercoiling [3]: none of the compounds showed an inhibitory effect |
| CCCOC(=O)c1ccc2c(c1)[n+]([O-])c(C(C)=O)c(C)[n+]2[O-] [Compound T-126] | 3 (≈ 9.86 µM) | – | – |
| CCCOC(=O)c1ccc2c(c1)[n+]([O-])c(C(N)=O)c(C)[n+]2[O-] [Compound T-130] | 2.9 (≈ 9.5 µM) | – | – |
| CCCOC(=O)c1ccc2c(c1)[n+]([O-])c(C(=O)c1ccccc1)c(C)[n+]2[O-] [Compound T-132] | 2.3 (≈ 6.28 µM) | – | – |
| NNC(=O)c1ccncc1 [INH, isoniazid, reference compound] | 0.12 (≈ 0.875 µM) | > 128 | – |
